Results from ChEMBL document CHEMBL1201862, “PubChem BioAssay data set” (2004).
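Where inhibition never reached the appropriate level, the endpoint shown equals the highest concentration tested. Otherwise, values were interpolated linearly from a five-concentration, 48-hour dose response in 96-well plates. Abbreviation: GI50, concentration required for 50% inhibition of growth.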 Calls of active or inactive are those of the source. Cut-off read from the data, not from the text of the source: active = GI50 up to about 1.1 µM and inactive = higher.

Columns and labels:
Assay in all cases: growth of human tumour cells (NCI), 48 h
OVCAR-3 = system: OVCAR-3
U-251 = system: U-251
SF-539 = system: SF-539
NCI-H460 = system: NCI-H460
LOX IMVI = system: LOX IMVI
ACHN = system: ACHN
OVCAR-4 = system: OVCAR-4
EKVX = system: EKVX
SN12C = system: SN12C
NCI-H226 = system: NCI-H226
OVCAR-5 = system: OVCAR-5
HL-60 = system: HL-60
NCI-H522 = system: NCI-H522
SNB-75 = system: SNB-75
TK-10 = system: TK-10
NCI-H23 = system: NCI-H23

Measured: GI50

O=[N+]([O-])c1ccc(-c2noc(-c3ccc(Cl)cc3)c2C2=NCCN2)cc1
inactive: OVCAR-3 > 100 µM | U-251 > 100 µM | SF-539 > 100 µM | NCI-H460 > 100 µM | LOX IMVI > 100 µM | ACHN > 100 µM | OVCAR-4 > 100 µM | EKVX > 100 µM | SN12C > 100 µM | NCI-H226 > 100 µM | OVCAR-5 > 100 µM | HL-60 > 100 µM | NCI-H522 > 100 µM

Cc1ccc2sc3cc(=O)cc(C)c-3nc2c1
inactive: OVCAR-3 57.3 µM | U-251 32.7 µM | SF-539 37.9 µM | SNB-75 > 100 µM | NCI-H460 > 100 µM | ACHN 29.2 µM | OVCAR-4 14.2 µM | EKVX 38.6 µM | SN12C 60.4 µM | TK-10 > 100 µM | NCI-H226 > 100 µM | OVCAR-5 > 100 µM | HL-60 13.8 µM | NCI-H23 45.3 µM | NCI-H522 20.3 µM

COC(=O)CCC(=O)N1Cc2cc(C)ccc2N(C(=O)CCC(=O)OC)Cc2cc(C)ccc21
inactive: OVCAR-3 > 100 µM | U-251 > 100 µM | SF-539 > 100 µM | NCI-H460 > 100 µM | LOX IMVI > 100 µM | ACHN > 100 µM | OVCAR-4 > 100 µM | EKVX > 100 µM | SN12C > 100 µM | TK-10 > 100 µM | NCI-H226 > 100 µM | OVCAR-5 > 100 µM | HL-60 > 100 µM | NCI-H23 > 100 µM | NCI-H522 > 100 µM

c1ccc(P(=C2c3ccccc3-c3ccccc32)(c2ccccc2)c2ccccc2)cc1
inactive: OVCAR-3 2.53 µM | U-251 3.05 µM | SF-539 11.5 µM | SNB-75 28.1 µM | NCI-H460 3.37 µM | LOX IMVI 2.83 µM | ACHN 2.66 µM | OVCAR-4 6.1 µM | EKVX 5.58 µM | SN12C 3.15 µM | TK-10 7.64 µM | OVCAR-5 4.32 µM | HL-60 1.8 µM | NCI-H23 2.45 µM | NCI-H522 1.6 µM

CC1=CC(=O)C(=O)C2=C1OC1(C2)C(C)CCC2C3(C)CCC(O)C(C)(C)C3CCC21C (stereo not drawn)
inactive: OVCAR-3 18.6 µM | U-251 14.6 µM | SF-539 > 100 µM | SNB-75 48.4 µM | NCI-H460 17.5 µM | LOX IMVI 16.7 µM | ACHN 16.9 µM | OVCAR-4 17.2 µM | SN12C > 100 µM | TK-10 18.8 µM | NCI-H226 18.2 µM | OVCAR-5 18.2 µM | HL-60 2.22 µM | NCI-H23 15.8 µM | NCI-H522 15.2 µM
